# Values of other authors, collected in patent publication US20090270472A1, “METHOD TO USE OXYMETAZOLINE TO INTERRUPT THE DEVELOPMENT OF THE COMMON COLD SYNDROME” (priority 2008, published 2009).
# Settings: subjects with acute rhinitis; six (6) days with saline placebo
smiles,measurement,value
Cc1cc(C(C)(C)C)c(O)c(C)c1CC1=NCCN1 [oxymetazoline],duration of rhinitis,4 days
